Measurements reported in patent publication US20130078613A1, “Selection of HCV Treatment” (ROCHE MOLECULAR SYSTEMS, priority 2011, published 2013).
Marks after values point to notes of the source that are not given here.

Assays:
CHC genotype 1 or 4 [1] = test: Clinical Study NV22621; assay type: in vivo, human
Excerpt: (§1) The term “response” to treatment is a desirable response to the administration of an agent. Virological endpoints included “early virological response” (EVR), defined as ≧2-log drop in serum HCV RNA from baseline to week 12 (by Cobas Amplicor HCV Monitor Test, v2.0, limit of quantitation 600 IU/mL), complete EVR (cEVR) defined as undetectable HCV RNA (<15 IU/mL) in serum (by Cobas Amplicor HCV Test v2.0, […]) or and “sustained virological response” (SVR), defined as undetectable HCV RNA (<15 IU/mL) at the end of either a 12-week (SVR-12) or a 24-week (SVR-24) untreated follow-up period. The term “sustained rapid virological response” (sRVR) refers to undetectable HCV RNA (<15 IU/mL) during the period of 4 weeks and 22 weeks of treatment. The term “extended rapid virological response” (eRVR) refers to undetectable HCV RNA (<15 IU/mL) during the period of between 4 weeks and 20 weeks of treatment.
Study NV22621 was designed to determine the safety and efficacy of longer treatment duration (24 weeks) of 1000 mg BID RO5024048 in combination with PEG-IFN/RBV in treatment naïve CHC genotype 1 or 4 patients. Patients enrolled in Study NV22621 were randomized to one of two treatment groups (FIG. 1B) (approximately 80 patients per treatment group). In the response-guided treatment group, patients with a sustained RVR (sRVR, defined as undetectable HCV RNA from week 4-22) stopped all therapy at Week 24.
(§2) The Roche Clinical Repository (RCR) is an optional program that requires separate consent; data are anonymized to assure patient privacy. The RCR DNA samples were used to determine IL28B status using TaqMan Real-Time PCR. Efficacy endpoints were summarized for the two subgroups, CC vs. non-CC (CT and TT).

HCV [2] = conditions: combination with PEG-IFN and RBV; cited from earlier work
[3] = extensively converted to RO4995855; cited from earlier work
NS5B (S282T) = biological target: T1, NS5B (S282T) (Hepatitis C virus genotype 1b, UniProt Q9WMX2, S2701T); conditions: sequential passage of replicon cells; cited from earlier work
T1 construct: Amino acid substitution in NS5B (S282T)
T1 sequence (Q9WMX2 2420-3010 S2701T): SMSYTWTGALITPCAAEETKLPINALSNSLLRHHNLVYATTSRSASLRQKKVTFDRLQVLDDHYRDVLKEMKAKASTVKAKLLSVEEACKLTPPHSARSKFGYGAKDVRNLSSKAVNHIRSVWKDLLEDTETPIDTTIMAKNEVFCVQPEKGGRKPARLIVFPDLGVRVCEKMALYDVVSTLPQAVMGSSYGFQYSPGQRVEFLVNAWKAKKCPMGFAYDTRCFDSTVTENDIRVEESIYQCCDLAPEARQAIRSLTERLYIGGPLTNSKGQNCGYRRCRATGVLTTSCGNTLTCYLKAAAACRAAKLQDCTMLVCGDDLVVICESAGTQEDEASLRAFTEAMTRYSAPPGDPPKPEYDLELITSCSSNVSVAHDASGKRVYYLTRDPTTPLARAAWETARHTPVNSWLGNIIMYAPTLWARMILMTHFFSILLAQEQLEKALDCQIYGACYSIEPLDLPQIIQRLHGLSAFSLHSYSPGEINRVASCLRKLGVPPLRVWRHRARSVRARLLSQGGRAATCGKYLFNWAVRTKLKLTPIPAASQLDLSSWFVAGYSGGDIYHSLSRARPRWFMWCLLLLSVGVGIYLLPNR

CHC genotype 1 or 4 [4] = test: Clinical Study NV20536; assay type: in vivo, human; conditions: for SVR-12 and SVR-24: across RVR-guided arms; for relapse / SVR-12 (%) / SVR-12 n/N / SVR-24 (%) / SVR-24 n/N: sRVR patients
Excerpt: as §1
Study NV20536 was designed to determine the optimal dose (500 or 1000 mg twice daily [BID]) and duration (8 or 12 weeks) of RO5024048 in combination with PEG-IFN/RBV in treatment-naïve CHC genotype 1 or 4 patients. Patients enrolled in Study NV20536 were randomized to one of five treatment groups (FIG. 1A) (approximately 80 patients per treatment group). In the response-guided treatment groups, patients with a sustained RVR (sRVR, defined as undetectable HCV RNA from week 4-22) stopped all therapy at Week 24.
Patients received double blinded experimental treatment with RO5024048 500 mg BID and standard of care treatment (SOC, Pegasys 180 μg sc qw+Copegus 1000 mg (<75 kg) or 1200 mg (≧75 kg) po qd) or RO5024048 1000 mg BID and SOC respectively, for 12 weeks followed by SOC for 12 weeks. Patients who achieve an RVR, defined as undetectable HCV RNA at week 4, and remain undetectable through week 22 stopped all treatment at week 24. Non-RVR patients received SOC for an additional 24 weeks for a total treatment duration of 48 weeks.
Patients received double blinded experimental treatment with RO5024048 1000 mg BID and SOC for 8 weeks followed by SOC for 16 weeks. Patients who achieve an RVR defined as undetectable HCV RNA at week 4, and remain undetectable through week 22 stopped all treatment at week 24. Non-RVR patients received SOC for an additional 24 weeks for a total treatment duration of 48 weeks. […]
as §2, with “PCR for rs12979860.” for “PCR.”

HCV genotypes (1-4) = conditions: four main genotypes (1-4); cited from earlier work
[5] = biological target: NS5B-directed HCV polymerase (Hepatitis C virus genotype 1b, UniProt Q9WMX2); conditions: ref [7]; cited from earlier work
Chain of NS5B-directed HCV polymerase (Q9WMX2 2420-3010): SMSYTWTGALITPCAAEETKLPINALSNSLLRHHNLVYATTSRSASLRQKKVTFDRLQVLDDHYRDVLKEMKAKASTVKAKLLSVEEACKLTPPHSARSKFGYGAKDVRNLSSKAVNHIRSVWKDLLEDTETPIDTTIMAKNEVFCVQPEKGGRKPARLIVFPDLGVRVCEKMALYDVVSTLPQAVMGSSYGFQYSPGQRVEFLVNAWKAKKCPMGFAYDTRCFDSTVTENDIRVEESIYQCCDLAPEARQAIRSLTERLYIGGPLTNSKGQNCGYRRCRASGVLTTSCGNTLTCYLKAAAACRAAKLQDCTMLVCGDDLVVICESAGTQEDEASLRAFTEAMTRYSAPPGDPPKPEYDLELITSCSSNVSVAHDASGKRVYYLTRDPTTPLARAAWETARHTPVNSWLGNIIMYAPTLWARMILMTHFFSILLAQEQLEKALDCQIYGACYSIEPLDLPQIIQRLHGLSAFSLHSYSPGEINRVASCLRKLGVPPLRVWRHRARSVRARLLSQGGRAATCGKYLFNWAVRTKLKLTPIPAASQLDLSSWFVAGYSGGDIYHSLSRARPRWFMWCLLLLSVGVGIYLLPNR

HCV [6] = conditions: RBV monotherapy; cited from earlier work
[7] = Group A, 1000 mg 24 wks + P/R RVR-guided, Total, sRVR patients
[8] = Group A, 500 mg 12 wks + P/R RVR-guided, IL28B CC
[9] = Group A, 500 mg 12 wks + P/R RVR-guided, IL28B NonCC
[10] = Group A, 500 mg 12 wks + P/R RVR-guided, Total
[11] = Group B, 1000 mg 8 wks + P/R RVR-guided, IL28B CC
[12] = Group B, 1000 mg 8 wks + P/R RVR-guided, IL28B NonCC
[13] = Group B, 1000 mg 8 wks + P/R RVR-guided, Total
[14] = Group C, 1000 mg 12 wks + P/R RVR-guided, IL28B CC
[15] = Group C, 1000 mg 12 wks + P/R RVR-guided, IL28B NonCC
[16] = Group C, 1000 mg 12 wks + P/R RVR-guided, Total

With CC(C)C(=O)OC[C@H]1O[C@@H](n2ccc(N)nc2=O)[C@](C)(F)[C@@H]1OC(=O)C(C)C [RO5024048, mericitabine] the cEVR (CHC genotype 1 or 4 [1]; 1000-mg group, RCR-consented population) was 94%, the “SVR-12 n/N” value (CHC genotype 1 or 4 [1]; Group A, 1000 mg 24 wks + P/R RVR-guided, IL28B CC, sRVR patients) was 12/15 and the “SVR-12 n/N” value (CHC genotype 1 or 4 [1]; Group A, 1000 mg 24 wks + P/R RVR-guided, IL28B NonCC, sRVR patients) was 13/18. The “SVR-12 (%)” value (CHC genotype 1 or 4 [1]; [7]) was “(75.0%)*”, the “SVR-12 n/N” value (CHC genotype 1 or 4 [1]; [7]) was 24/32 and the “sRVR (%)” value (CHC genotype 1 or 4 [1]; Group A, RO5024048 1000 mg 24 wks + P/R 24/48 wks RVR-guided, N = 52, Total) was “(63.5%)”. For the same molecule, the RVR (CHC genotype 1 or 4 [1]; RVR-guided 1000-mg group (24 wks with PEG-IFN/RBV), overall population) was 63%, the cEVR (CHC genotype 1 or 4 [1]; RVR-guided 1000-mg group, overall ITT population) was 89% and the week-24 virological response (CHC genotype 1 or 4 [1]; RVR-guided 1000-mg group, overall population) was 91%. For the same molecule, the “maximal rate of undetectable viral load” value (CHC genotype 1 or 4 [1]; non-CC genotype, 24 weeks of triple therapy, at weeks 20 to 24 (data not shown)) was over 90%, the “antiviral effect of combination” value (HCV [2]) was “additive antiviral effect” and the “absorption after oral administration” value [3] was “rapidly absorbed”. For the same molecule, the “resistance conferred by NS5B S282T substitution” value (NS5B (S282T)) was “low level resistance”, the “RVR (undetectable HCV RNA at week 4)” value (CHC genotype 1 or 4 [4]; 500-mg 12-week RVR-guided group, with PEG-IFN/RBV, overall population) was 38% and the “SVR-12 and SVR-24” value (CHC genotype 1 or 4 [4]; CC patients who achieve sRVR and stop all treatment after 24 weeks) was 67-90%. For the same molecule, the relapse (CHC genotype 1 or 4 [4]; CC, arm A, 12 weeks followup after EOT) was 2/8, the relapse (CHC genotype 1 or 4 [4]; CC, arm A, 24 weeks followup after EOT) was 2/7 and the relapse (CHC genotype 1 or 4 [4]; CC, arm C, 12 weeks followup after EOT) was 4/12. For the same molecule, the relapse (CHC genotype 1 or 4 [4]; CC, arm C, 24 weeks followup after EOT) was 4/12, the “SVR-12 (%)” value (CHC genotype 1 or 4 [4]; [8]) was “(75.0%)” and the “SVR-12 n/N” value (CHC genotype 1 or 4 [4]; [8]) was 6/8. The “SVR-24 (%)” value (CHC genotype 1 or 4 [4]; [8]) was “(85.7%)”, the “SVR-24 n/N” value (CHC genotype 1 or 4 [4]; [8]) was 6/7 and the “SVR-12 (%)” value (CHC genotype 1 or 4 [4]; [9]) was “(66.7%)”. For the same molecule, the “SVR-12 n/N” value (CHC genotype 1 or 4 [4]; [9]) was 6/9, the “SVR-24 (%)” value (CHC genotype 1 or 4 [4]; [9]) was “(55.6%)” and the “SVR-24 n/N” value (CHC genotype 1 or 4 [4]; [9]) was 5/9. For the same molecule, the “SVR-12 (%)” value (CHC genotype 1 or 4 [4]; [10]) was “(70.6%)*”, the “SVR-12 n/N” value (CHC genotype 1 or 4 [4]; [10]) was 12/17 and the “SVR-24 (%)” value (CHC genotype 1 or 4 [4]; [10]) was “(68.8%)*”. The “SVR-24 n/N” value (CHC genotype 1 or 4 [4]; [10]) was 11/16, the “sRVR (%)” value (CHC genotype 1 or 4 [4]; Group A, RO5024048 500 mg 12 wks + P/R 24/48 wks RVR-guided, N = 49, Total) was “(36.7%)” and the “SVR-12 (%)” value (CHC genotype 1 or 4 [4]; [11]) was “(90.0%)”. The “SVR-12 n/N” value (CHC genotype 1 or 4 [4]; [11]) was 9/10, the “SVR-24 (%)” value (CHC genotype 1 or 4 [4]; [11]) was “(80.0%)” and the “SVR-24 n/N” value (CHC genotype 1 or 4 [4]; [11]) was 8/10. For the same molecule, the “SVR-12 (%)” value (CHC genotype 1 or 4 [4]; [12]) was “(38.5%)”, the “SVR-12 n/N” value (CHC genotype 1 or 4 [4]; [12]) was 5/13 and the “SVR-24 (%)” value (CHC genotype 1 or 4 [4]; [12]) was “(25.0%)”. The “SVR-24 n/N” value (CHC genotype 1 or 4 [4]; [12]) was 3/12, the “SVR-12 (%)” value (CHC genotype 1 or 4 [4]; [13]) was “(60.9%)” and the “SVR-12 n/N” value (CHC genotype 1 or 4 [4]; [13]) was 14/23. For the same molecule, the “SVR-24 (%)” value (CHC genotype 1 or 4 [4]; [13]) was “(50.0%)*”, the “SVR-24 n/N” value (CHC genotype 1 or 4 [4]; [13]) was 11/22 and the “sRVR (%)” value (CHC genotype 1 or 4 [4]; Group B, RO5024048 1000 mg 8 wks + P/R 24/48 wks RVR-guided, N = 49, Total) was “(46.9%)”. The “SVR-12 n/N” value (CHC genotype 1 or 4 [4]; [14]) was 8/12, the “SVR-24 (%)” value (CHC genotype 1 or 4 [4]; [14]) was “(66.7%)” and the “SVR-24 n/N” value (CHC genotype 1 or 4 [4]; [14]) was 8/12. For the same molecule, the “SVR-12 n/N” value (CHC genotype 1 or 4 [4]; [15]) was 5/18, the “SVR-24 (%)” value (CHC genotype 1 or 4 [4]; [15]) was “(22.2%)” and the “SVR-24 n/N” value (CHC genotype 1 or 4 [4]; [15]) was 4/18. For the same molecule, the “SVR-12 (%)” value (CHC genotype 1 or 4 [4]; [16]) was “(43.3%)”, the “SVR-12 n/N” value (CHC genotype 1 or 4 [4]; [16]) was 13/30 and the “SVR-24 (%)” value (CHC genotype 1 or 4 [4]; [16]) was “(40.0%)”. For the same molecule, the “SVR-24 n/N” value (CHC genotype 1 or 4 [4]; [16]) was 12/30, the “sRVR (%)” value (CHC genotype 1 or 4 [4]; Group C, RO5024048 1000 mg 12 wks + P/R 24/48 wks RVR-guided, N = 46, Total) was “(65.2%)” and the “SVR-12 and SVR-24” value (CHC genotype 1 or 4 [4]; non-CC patients who achieve sRVR and stop all treatment after 24 weeks) was 22-67%. For the same molecule, the relapse (CHC genotype 1 or 4 [4]; non-CC, Arm A, 12 weeks followup after EOT) was 3/9, the relapse (CHC genotype 1 or 4 [4]; non-CC, Arm A, 24 weeks followup after EOT) was 4/9 and the relapse (CHC genotype 1 or 4 [4]; non-CC, Arm C, 12 weeks followup after EOT) was 13/18. The relapse (CHC genotype 1 or 4 [4]; non-CC, Arm C, 24 weeks followup after EOT) was 14/18, the “in vitro activity across genotypes” value (HCV genotypes (1-4)) was “Activity has been demonstrated” and the IC50 [5] was 610 ± 40 nM.

In the case of NC(=O)c1ncn([C@@H]2O[C@H](CO)[C@@H](O)[C@H]2O)n1 [ribavirin, 1-((2R,3R,4S,5R)-3,4-Dihydroxy-5-hydroxymethyl-tetrahydro-furan-2-yl)-1H-[1,2,4]triazole-3-carboxylic acid amide], the “effect on the replication of HCV” value (HCV [6]) is listed as “little or no effect”.
